# Assay results from PubChem BioAssay AID330 (DTP/NCI, 2004).
# Where “and” joins values, the source holds several entries; their conditions need not be identical. Identical values can stand only once. Toxic doses and inconclusive results are not listed.
# System: P388 leukemia ip, CD2F1 mice, survival T/C
# Assay: NCI In Vivo Anticancer Drug Screen. Data for tumor model P388 Leukemia (intraperitoneal) in CD2F1 (CDF1) mice
# Settings: endpoint: median survival time, higher = longer survival
# Method in brief: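 Mice carrying the transplanted tumor received test compound or vehicle. Survival was recorded in each group, and the value is the treated-group measurement divided by that of the vehicle-treated control group.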
# [1] = dose: 12.5 mg/kg/injection, schedule: Q01DX005 (ip), vehicle: Klucel (hydroxypropylcellulose) (HPC)
# [2] = dose: 25.0 mg/kg/injection, schedule: Q01DX005 (ip), vehicle: Klucel (hydroxypropylcellulose) (HPC)
# [3] = dose: 50.0 mg/kg/injection, schedule: Q01DX005 (ip), vehicle: Klucel (hydroxypropylcellulose) (HPC)
# [4] = dose: 100.0 mg/kg/injection, schedule: Q04DX002 (ip), vehicle: saline with Tween-80
# [5] = dose: 50.0 mg/kg/injection, schedule: Q01DX009 (ip), vehicle: saline with Tween-80
# [6] = dose: 100.0 mg/kg/injection, schedule: Q01DX009 (ip), vehicle: saline with Tween-80
# [7] = dose: 50.0 mg/kg/injection, schedule: Q01DX005 (ip), vehicle: saline
# [8] = dose: 100.0 mg/kg/injection, schedule: Q01DX005 (ip), vehicle: saline
# [9] = dose: 200.0 mg/kg/injection, schedule: Q01DX009 (ip), vehicle: saline with Tween-80
smiles,measurement,setting,value
C/C(=N\Nc1cc(C)nc2cc3c(cc12)OCO3)c1cn(C)n(-c2ccccc2)c1=O,T/C,"dose: 3.12 mg/kg/injection, schedule: Q01DX005 (ip), vehicle: Klucel (hydroxypropylcellulose) (HPC)",97 % of control
same,T/C,"dose: 6.25 mg/kg/injection, schedule: Q01DX005 (ip), vehicle: Klucel (hydroxypropylcellulose) (HPC)",97 % of control
same,T/C,[1],103 % of control and 96 % of control
same,T/C,[2],100 % of control
same,T/C,[3],98 % of control and 110 % of control
same,T/C,"dose: 100.0 mg/kg/injection, schedule: Q01DX005 (ip), vehicle: Klucel (hydroxypropylcellulose) (HPC)",109 % of control
OCC1OC(n2cnc3c(=S)nc[nH]c32)CC1O (centres undefined),T/C,"dose: 167.0 mg/kg/injection, schedule: Q01DX009 (ip), vehicle: saline with Tween-80",100 % of control
same,T/C,"dose: 267.0 mg/kg/injection, schedule: Q01DX009 (ip), vehicle: saline with Tween-80",113 % of control
O=c1[nH]cc(Br)c2ccccc12,T/C,"dose: 25.0 mg/kg/injection, schedule: Q04DX002 (ip), vehicle: saline with Tween-80",92 % of control
same,T/C,"dose: 50.0 mg/kg/injection, schedule: Q04DX002 (ip), vehicle: saline with Tween-80",93 % of control
same,T/C,[4],96 % of control
NCCSSc1ccccc1[N+](=O)[O-],T/C,[1],98 % of control
same,T/C,[2],94 % of control
same,T/C,[3],98 % of control and 90 % of control
COc1ccc(C(=O)ON(c2ccccc2)C(C)(C)C)cc1,T/C,"dose: 25.0 mg/kg/injection, schedule: Q01DX009 (ip), vehicle: saline with Tween-80",97 % of control
same,T/C,[5],103 % of control
same,T/C,[6],97 % of control
CC1=N/C(=C\C=C\c2ccccc2)C(=O)O1,T/C,[7],104 % of control
same,T/C,[8],101 % of control
same,T/C,"dose: 200.0 mg/kg/injection, schedule: Q01DX005 (ip), vehicle: saline",103 % of control
O=C1OCC2(C(=O)O)C(=O)OCC12 (centres undefined),T/C,"dose: 8.0 mg/kg/injection, schedule: Q01DX009 (ip), vehicle: saline with Tween-80",94 % of control
same,T/C,"dose: 16.0 mg/kg/injection, schedule: Q01DX009 (ip), vehicle: saline with Tween-80",105 % of control and 108 % of control
same,T/C,"dose: 32.0 mg/kg/injection, schedule: Q01DX009 (ip), vehicle: saline with Tween-80",107 % of control
same,T/C,"dose: 64.0 mg/kg/injection, schedule: Q01DX009 (ip), vehicle: saline with Tween-80",100 % of control and 108 % of control
same,T/C,"dose: 128.0 mg/kg/injection, schedule: Q01DX009 (ip), vehicle: saline with Tween-80",97 % of control
CC1(C)CC(OP(=O)(OCCN2CC2)OCCN2CC2)CC(C)(C)N1O,T/C,[5],107 % of control
same,T/C,[6],100 % of control
same,T/C,[9],96 % of control
O=C1NC2(CCCCC2)C(=O)N1CCCCN(CCCl)CCCl,T/C,"dose: 1.5 mg/kg/injection, schedule: Q01DX005 (ip), vehicle: saline",122 % of control
same,T/C,"dose: 6.0 mg/kg/injection, schedule: Q01DX005 (ip), vehicle: saline",119 % of control
same,T/C,"dose: 24.0 mg/kg/injection, schedule: Q01DX005 (ip), vehicle: saline",165 % of control
same,T/C,[7],160 % of control
same,T/C,[8],187 % of control
CSC#CC(Sc1c(Cl)c(Cl)c(Cl)c(Cl)c1Cl)=C(Sc1c(Cl)c(Cl)c(Cl)c(Cl)c1Cl)Sc1c(Cl)c(Cl)c(Cl)c(Cl)c1Cl,T/C,[5],99 % of control
same,T/C,[6],93 % of control
same,T/C,[9],92 % of control
COc1ccc(CC(C#N)c2ccc(Cl)cc2)cc1 (centres undefined),T/C,"dose: 50.0 mg/kg/injection, schedule: Q01DX009 (ip), vehicle: Klucel (hydroxypropylcellulose) (HPC)",107 % of control
same,T/C,"dose: 100.0 mg/kg/injection, schedule: Q01DX009 (ip), vehicle: Klucel (hydroxypropylcellulose) (HPC)",101 % of control
same,T/C,"dose: 200.0 mg/kg/injection, schedule: Q01DX009 (ip), vehicle: Klucel (hydroxypropylcellulose) (HPC)",98 % of control
same,T/C,"dose: 400.0 mg/kg/injection, schedule: Q01DX009 (ip), vehicle: Klucel (hydroxypropylcellulose) (HPC)",98 % of control
C=CC1CC(NC(=O)OCCCC)C(=O)O1 (centres undefined),T/C,"dose: 50.0 mg/kg/injection, schedule: Q01DX005 (ip), vehicle: saline with Tween-80",99 % of control
same,T/C,"dose: 100.0 mg/kg/injection, schedule: Q01DX005 (ip), vehicle: saline with Tween-80",101 % of control
same,T/C,"dose: 200.0 mg/kg/injection, schedule: Q01DX005 (ip), vehicle: saline with Tween-80",102 % of control
c1ccc(C2(N3CCOCC3)CSC2)cc1,T/C,[4],95 % of control
same,T/C,"dose: 200.0 mg/kg/injection, schedule: Q04DX002 (ip), vehicle: saline with Tween-80",98 % of control
same,T/C,"dose: 400.0 mg/kg/injection, schedule: Q04DX002 (ip), vehicle: saline with Tween-80",98 % of control
Cc1ccc(N2CC3CC4(C)C=CC3(C2)O4)cc1 (centres undefined),T/C,"dose: 60.0 mg/kg/injection, schedule: Q01DX005 (ip), vehicle: saline with Tween-80",103 % of control
same,T/C,"dose: 120.0 mg/kg/injection, schedule: Q01DX005 (ip), vehicle: saline with Tween-80",111 % of control
same,T/C,"dose: 240.0 mg/kg/injection, schedule: Q01DX005 (ip), vehicle: saline with Tween-80",98 % of control
